One assay addresses T1, PKCθ (Homo sapiens, UniProt Q04759).
T1 construct: His6; purchased Millipore; host or cells: baculovirus in Sf21 cells
Briefly: In vitro enzyme assay (time-resolved fluorescence kinase assay), PKCθ, 100 μM ATP. It is filed as biochemical. Summed up: (§1)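 Read-out was time-resolved fluorescence, corrected for a minus-enzyme blank and converted to percent activity relative to enzyme without drug. They were stopped with EDTA.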

The next assay deals with T2, PKCα (Homo sapiens, UniProt P17252).
T2 construct: His6; purchased Millipore; host or cells: baculovirus in Sf21 cells
Briefly: In vitro enzyme assay (time-resolved fluorescence kinase assay), PKCα, 100 μM ATP. The assay is classed as biochemical. The following applies: 100 μM ATP; read-out: PKCα enzyme IC50. Summed up: as §1

Assay [1] relates to CD3/CD28 induced IL-2 in human T-Blasts. Briefly: T-Blasts CD3/CD28 induced IL-2 assay. The following applies: read-out: CD3/CD28-stimulated IL2 in T-blasts EC50. It is filed as cell-based. Summed up: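 PHA-generated human T-blasts, 2×10^5 per well, preincubated 30 min with 8-point 1/3 compound dilutions in duplicate, then stimulated with anti-CD3+anti-CD28 (5 μg/mL final) for 24 h at 37° C. Supernatant IL-2 measured; MTT toxicity run on remaining cells.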

In patent publication US9115151B2, “Substituted 2,10-dihydro-9-oxa-1,2,4A-triazaphenanthren-3-ones and uses thereof” (AbbVie Inc., priority 2012, dated 2015) one finds IC50 and EC50 data, which are given here for 34 molecules.

Counter-ions that a name gives are not always drawn.

T1 sequence (Q04759 whole entry): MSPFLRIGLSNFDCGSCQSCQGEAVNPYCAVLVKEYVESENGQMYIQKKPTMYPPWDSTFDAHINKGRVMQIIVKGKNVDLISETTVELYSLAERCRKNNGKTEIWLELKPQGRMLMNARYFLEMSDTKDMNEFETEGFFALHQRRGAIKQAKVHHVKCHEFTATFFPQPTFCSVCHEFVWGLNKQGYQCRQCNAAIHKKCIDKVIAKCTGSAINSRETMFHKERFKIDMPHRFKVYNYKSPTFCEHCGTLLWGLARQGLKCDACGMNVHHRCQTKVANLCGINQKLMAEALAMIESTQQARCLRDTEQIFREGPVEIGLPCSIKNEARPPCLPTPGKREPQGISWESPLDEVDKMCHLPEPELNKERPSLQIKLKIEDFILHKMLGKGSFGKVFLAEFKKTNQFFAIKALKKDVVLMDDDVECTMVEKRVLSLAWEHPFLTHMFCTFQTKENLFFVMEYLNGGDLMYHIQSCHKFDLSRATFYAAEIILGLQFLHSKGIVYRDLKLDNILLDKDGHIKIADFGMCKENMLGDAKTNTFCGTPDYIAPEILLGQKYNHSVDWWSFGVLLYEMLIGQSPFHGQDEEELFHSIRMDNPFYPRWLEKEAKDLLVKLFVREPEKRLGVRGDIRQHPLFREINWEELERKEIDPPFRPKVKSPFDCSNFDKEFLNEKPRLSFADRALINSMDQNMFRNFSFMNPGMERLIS

On to `Cc1cc2c(cc1OC1(C)CNC1)N1C(=NNC(=O)C1C)CO2` (stereo not drawn) [Example 83, 4,7-Dimethyl-6-(3-methyl-azetidin-3-yloxy)-2,10-dihydro-9-oxa-1,2,4a-triaza-phenanthren-3-one trifluoroacetic acid], for which the half-inhibitory concentration (IC50) is below 250 nM against PKCθ and 1000 to 10000 nM on PKCα. The EC50 in assay [1] was below 250 nM.
Consider `Cc1ccc(F)cc1-c1cc2c(cc1NC1CNC1)N1C(=NNC(=O)C1C)CO2` (racemic) [Example 15], for which the IC50 on PKCθ was below 250 nM; at PKCα it was 1000 to 10000 nM. The EC50 in assay [1] was below 250 nM.
Regarding `Cc1cc2c(cc1NC1CNC1)N1C(=NNC(=O)[C@H]1C)CO2` (single isomer, unassigned) [Example 54-1, trifluoroacetic acid], the IC50 on PKCθ is below 250 nM; on PKCα, 1000 to 10000 nM. Moreover, the EC50 in assay [1] fell in the range of 250 to 1000 nM.
For `CC(C)c1cc2c(cc1[C@@H](C)C1(C)CN(C)C1)N1C(=NNC(=O)[C@H]1C)CO2` [Example 134, (R)-6-[(R)-1-(1,3-Dimethyl-azetidin-3-yl)-ethyl]-7-isopropyl-4-methyl-2,10-dihydro-9-oxa-1,2,4a-triaza-phenanthren-3-one], in that order: below 250 nM, 1000 to 10000 nM and 250 to 1000 nM.
For `C[C@@H]1C(=O)NN=C2COc3cc(-c4ccc(Cl)cc4)c(NC4CNC4)cc3N21` [Example 7], in that order: below 250 nM, 1000 to 10000 nM and below 250 nM.
The like results for `C[C@@H]1C(=O)NN=C2COc3cc(-c4ccccc4F)c(N4CCN(C)C[C@@H]4C)cc3N21` [Example 231] were, in that order, below 250 nM, 250 to 1000 nM and below 250 nM.
For `C[C@H]1C(=O)NN=C2COc3cc(C4CC4)c(NC4CNC4)cc3N21` (single isomer, unassigned) [Example 64-2, trifluoroacetic acid], the IC50 against PKCθ is 250 to 1000 nM; on PKCα, 1000 to 10000 nM. In assay [1], the EC50 is 1000 to 10000 nM.
With `Cc1ccc(-c2cc3c(cc2N(C)C2(C)CN(C)C2)N2C(=NNC(=O)C2C)CO3)cc1` (stereo not drawn) [Example 167], the IC50 on PKCθ was below 250 nM; on PKCα, 250 to 1000 nM. The EC50 in assay [1] is below 250 nM.
As for `CC1C(=O)NN=C2COc3cc(-c4ccc(Cl)cc4)c(NC4CNC4)cc3N21` (racemic) [Example 45], the IC50 was below 250 nM against PKCθ and 1000 to 10000 nM on PKCα. Moreover, the EC50 in assay [1] is below 250 nM.
For the molecule `CC1C(=O)NN=C2COc3cc(-c4ccccc4)c(NC4CNC4)cc3N21` (racemic) [Example 51], the IC50 was below 250 nM on PKCθ and 1000 to 10000 nM on PKCα. For the same molecule, the EC50 in assay [1] was in the range of 250 to 1000 nM.
For `CC(C)c1cc2c(cc1[C@@H](C)C1(C)CNC1)N1C(=NNC(=O)[C@H]1C)CO2` [Example 133, (R)-7-Isopropyl-4-methyl-6-[(R)-1-(3-methyl-azetidin-3-yl)-ethyl]-2,10-dihydro-9-oxa-1,2,4a-triaza-phenanthren-3-one hydrochloric acid], in that order: 250 to 1000 nM, 1000 to 10000 nM and 250 to 1000 nM.
In the case of `CC1C(=O)NN=C2COc3cc(-c4ccccc4OC(F)(F)F)c(NC4CNC4)cc3N21` (racemic) [Example 27], the results for the IC50 against PKCθ and on PKCα were below 250 nM and 1000 to 10000 nM, respectively. The EC50 in assay [1] is below 250 nM.
Take `CC(C)c1cc2c(cc1OC1(C)CNC1)N1C(=NNC(=O)[C@@H]1C)CO2` (single isomer, unassigned) [Example 121-1, trifluoroacetic acid]: the results for the IC50 at PKCθ and on PKCα were below 250 nM and 1000 to 10000 nM, respectively. Moreover, in assay [1], the EC50 is 250 to 1000 nM.
For `C[C@@H]1C(=O)NN=C2COc3cc(-c4ccccc4Cl)c(N(C)C4(C)CN(C)C4)cc3N21` [Example 177], in that order: below 250 nM, 250 to 1000 nM and below 250 nM.
Consider `C[C@@H]1C(=O)NN=C2COc3cc(-c4ccccc4F)c([C@@H](C)C4(C)CN(CC5CCOCC5)C4)cc3N21` [Example 142], for which the IC50 at PKCθ is below 250 nM; at PKCα, 1000 to 10000 nM. In addition, the EC50 in assay [1] lay in the range of 250 to 1000 nM.
For `C[C@@H]1C(=O)NN=C2COc3cc4ccn(C5(C)CN(C)C5)c4cc3N21` [Example 160, (R)-10-(1,3-Dimethyl-azetidin-3-yl)-1-methyl-3,5-dihydro-10H-6-oxa-3,4,10,11b-tetraaza-cyclopenta[b]phenanthren-2-one hydrochloride], in that order: below 250 nM, 250 to 1000 nM and below 250 nM.
In the case of `C[C@@H]1CNCCN1c1cc2c(cc1-c1ccccc1F)OCC1=NNC(=O)[C@@H](C)N12` [Example 223], the IC50 against PKCθ was below 250 nM; at PKCα, 250 to 1000 nM. In addition, the EC50 in assay [1] was below 250 nM.
Take `C[C@@H]1C(=O)NN=C2COc3cc(-c4ccc(F)cc4F)c(N(C)C4(C)CN(C)C4)cc3N21` [Example 178]: the IC50 against PKCθ was below 250 nM; on PKCα, 250 to 1000 nM. The EC50 in assay [1] was below 250 nM.
In the case of `C[C@@H]1CN(C)[C@@H](C)CN1c1cc2c(cc1-c1ccccc1F)OCC1=NNC(=O)[C@@H](C)N12` [Example 246, (R)-7-(2-Fluoro-phenyl)-4-methyl-6-((2R,5S)-2,4,5-trimethyl-piperazin-1-yl)-2,10-dihydro-9-oxa-1,2,4a-triaza-phenanthren-3-one], the 50% inhibitory concentration (IC50) at PKCθ was below 250 nM; on PKCα it was 250 to 1000 nM. Besides, in assay [1], the EC50 is below 250 nM.
For the molecule `CC(=O)N1CC(C)(n2ccc3cc4c(cc32)N2C(=NNC(=O)[C@H]2C)CO4)C1` [Example 155, (R)-10-(1-Acetyl-3-methyl-azetidin-3-yl)-1-methyl-3,5-dihydro-10H-6-oxa-3,4,10,11b-tetraaza-cyclopenta[b]phenanthren-2-one hydrochloric acid], the IC50 is below 250 nM at PKCθ and 1000 to 10000 nM at PKCα. In addition, in assay [1], the EC50 lay in the range of 250 to 1000 nM.
As for `C[C@@H]1C(=O)NN=C2COc3cc(-c4ccccc4)c(NC4CNC4)cc3N21` (single isomer, unassigned) [Example 1-1, trifluoroacetic acid], the IC50 against PKCθ is below 250 nM; on PKCα it was 1000 to 10000 nM. Besides, the EC50 in assay [1] is below 250 nM.
For the molecule `CC1C(=O)NN=C2COc3cc4ccn(C5CNC5)c4cc3N21` (stereo not drawn) [Example 103, 10-(Azetidin-3-yl)-1-methyl-5,10-dihydro-1H-[1,2,4]triazino[4′,3′:4,5][1,4]oxazino[2,3-f]indol-2(3H)-one trifluoroacetic acid], the IC50 is below 250 nM at PKCθ and 1000 to 10000 nM on PKCα. Also, the EC50 in assay [1] lay in the range of 250 to 1000 nM.
On to `CCC1(n2ccc3cc4c(cc32)N2C(=NNC(=O)[C@H]2C)CO4)CNC1` [Example 150], for which the IC50 was below 250 nM on PKCθ and 1000 to 10000 nM at PKCα. Also, the EC50 in assay [1] was in the range of 250 to 1000 nM.
For `CC1C(=O)NN=C2COc3cc(-c4ccc(OC(F)(F)F)cc4)c(NC4CNC4)cc3N21` (racemic) [Example 21], in that order: 250 to 1000 nM, 1000 to 10000 nM and below 250 nM.
For `C[C@@H]1C(=O)NN=C2COc3cc(-c4ccc(Cl)cc4Cl)c(NC4CNC4)cc3N21` [Example 8], in that order: below 250 nM, 1000 to 10000 nM and below 250 nM.
For `COc1ccc(-c2cc3c(cc2NC2CNC2)N2C(=NNC(=O)C2C)CO3)cc1` (racemic) [Example 30], the IC50 against PKCθ is below 250 nM; on PKCα, 1000 to 10000 nM. Further, in assay [1], the EC50 lay within 250 to 1000 nM.
Regarding `CC1C(=O)NN=C2COc3cc(C(C)C(F)(F)F)c(NC4(C)CNC4)cc3N21` (stereo not drawn) [Example 63], the IC50 against PKCθ is below 250 nM; at PKCα, 1000 to 10000 nM. The EC50 in assay [1] was below 250 nM.
For the molecule `CC1C(=O)NN=C2COc3cc(C4CCCC4)c(NC4CNC4)cc3N21` (stereo not drawn) [Example 60], the IC50 at PKCθ was below 250 nM; at PKCα it was 1000 to 10000 nM. Besides, the EC50 in assay [1] was in the range of 250 to 1000 nM.
Take `CC1C(=O)NN=C2COc3cc(F)c(OC4CNC4)cc3N21` (stereo not drawn) [Example 123, 9-(Azetidin-3-yloxy)-8-fluoro-1-methyl-3,5-dihydrobenzo[5,6][1,4]oxazino[3,4-c][1,2,4]triazin-2(1H)-one trifluoroacetic acid]: the results for the IC50 against PKCθ and on PKCα were 250 to 1000 nM and 1000 to 10000 nM, respectively. In assay [1], the EC50 lay within 1000 to 10000 nM.
On to `C[C@H]1C(=O)NN=C2COc3cc(-c4ccccc4F)c(N(C)[C@@]4(C)CCN(C)C4)cc3N21` (single isomer, unassigned) [Example 198-1], for which the half-inhibitory concentration (IC50) against PKCθ is below 250 nM; at PKCα, 1000 to 10000 nM. Further, the EC50 in assay [1] was 1000 to 10000 nM.
Regarding `Cc1ccccc1-c1cc2c(cc1N(C)C1(C)CN(C)C1)N1C(=NNC(=O)C1C)CO2` (stereo not drawn) [Example 88], the IC50 against PKCθ and at PKCα was below 250 nM throughout. The EC50 in assay [1] is below 250 nM.
On to `CC1C(=O)NN=C2COc3cc(-c4cccc(OC(F)(F)F)c4)c(NC4CNC4)cc3N21` (racemic) [Example 16], for which the IC50 against PKCθ lay within 250 to 1000 nM; on PKCα it was 1000 to 10000 nM. Moreover, the EC50 in assay [1] is below 250 nM.
For `CC1C(=O)NN=C2COc3cc4c(cc3N21)N(C1(C)CNC1)CC4` (stereo not drawn) [Example 158, 1-Methyl-10-(3-methyl-azetidin-3-yl)-3,5,9,10-tetrahydro-8H-6-oxa-3,4,10,11b-tetraaza-cyclopenta[b]phenanthren-2-one 2,2,2-trifluoroacetate], in that order: below 250 nM, 1000 to 10000 nM and below 250 nM.
For `C[C@@H]1C(=O)NN=C2COc3cc(C4=CCC(F)(F)CC4)c(C4CCNCC4)cc3N21` [Example 211], in that order: below 250 nM, 1000 to 10000 nM and 250 to 1000 nM.

For orientation: IC50 means the concentration at which inhibition is half-maximal.
